We go through one compound from US20230302154A1, “NANODRUGS FOR TARGETED DRUG DELIVERY AND USE THEREOF” (priority 2020, published 2023).

Series [1] can be described thus: In vitro sustained drug release assay of liposomal structure (equilibrium dialysis in PBS, NanoDrop). Type of series: physicochemical. Here is the method: In order to study the liposome formulation's extended drug release kinetics, a drug release study was done in PBS using an equilibrium dialysis system. […] Liposome 1 has a lipid charge density of 5%. The released TFV from the dialysis bag into the outside environment was sampled at different time points up to 14 days and was measured by a NanoDrop Microvolume Spectrophotometer. Simultaneously, a separate setup with the same concentration and volume of FD-TFV was used as a control. Results were expressed as the cumulative total of TFV released into the system compared to the initial concentration (FIG. 18). […] This downward trend may be caused by byproducts from the FD-TFV in the external environment.
(In equilibrium dialysis free small molecules cross a membrane that holds back macromolecules.)

For series [2], the system named is SH-SY5Y cells. Description: ROS production (DCF-DA) in SH-SY5Y cells. The conditions noted are these: 0.01-0.1 mg/mL TFV. Type of series: cell-based, human. The procedure:
(§1) As a first approach to predict the inflammatory response on neuronal cells, the ROS production of HMC-3 and SH-SY5Y cells was evaluated. HMC-3 (FIG. 12A) and SH-SY5Y cells (FIG. 12B) were treated with the different drug-to-lipid ratios of 1:20 and 1:4 at varying TFV drug concentrations (0.01-0.1 mg/mL). A negative control antioxidant (catalase) and positive control (H2O2) were used on non-treated cells. A simultaneous setup was also performed for empty NDs at varying lipid concentrations.
(§2) Reactive oxygen species of ND: Reactive oxygen species (ROS) productions in HMC-3 and SH-SY5Y cells following nanodisc treatment were detected using dichlorofluorescein diacetate assay (DCF-DA; Molecular Probes, Eugene, OR). Cells were cultured in 96-well black bottom plates at 100,000 cells per well and incubated at 37° C. in a humidified, 5% CO2 atmosphere for 24 hours to allow for 70% confluence. The following day, cell media was taken out from each well and replenished with 100 μl of PBS+1% FBS. […] A study of FD-TFV was also measured in similar conditions simultaneously. […] Following 2 hours, the first reading of cell ROS production was read in a BioTek Synergy HTH.T. multi-mode microplate reader (BioTek, Winooski, VT, USA) and then taken every hour for the following 18 hours (excitation 485 nm and emission 528 nm; BioTek). […]

In series [3] the test system is HMC-3 cells. Kind of series: ROS production (DCF-DA) in HMC-3 cells. Type of series: cell-based, human. The settings on record: 0.01-0.1 mg/mL TFV. The procedure: as §1, §2
Series [4] relates to HMC-3 cells. Kind of series: Cell viability (MTS) assay on HMC-3 cells. It counts as cell-based, human. The settings on record: HMC-3, 72 hours, 0.01-0.1 mg/mL. The procedure:
(§3) To characterize the nanodisc formulation in the biological system in in vitro conditions, it was necessary to screen the formulation for cytotoxicity and ensure that it would not induce significant cytotoxicity to microglial (HMC-3) and neuronal (SH-SY5Y) cells. […] A cell viability (MTS) study was performed for both 1:20 and 1:4 NDs as per the manufacturer's instruction (G3582, Promega, Madison, WI, USA). Nanodiscs were introduced to these cells separately at varying TFV drug concentrations of 0.01-0.1 mg/mL and incubated for 72 hours.
(§4) Microglia and Neuroblastoma Cell Culture: Human embryonic microglial clone 3 cells (HMC-3) and human neuroblastoma cells (SH-SY5Y) were purchased from the American Type Culture Collection (ATCC) Manassas, VA, USA). The transformed cell lines retain the properties of primary cells. They represent homogeneous cell populations that can be grown indefinitely and might represent a convenient system for their functions' biochemical analysis. Cells were cultured in Eagle's Minimum Essential Medium (EMEM) (ATCC®, Manassas, VA, USA) supplemented with a fetal bovine serum to a final concentration of 10% at 37° C. in a humidified, 5% CO2 atmosphere as recommended by the supplier.
(§5) Cells were cultured in 96-well black bottom plates at 50,000 cells per well and incubated at 37° C. in a humidified, 5% CO2 atmosphere for 24 hours to allow for 70% confluence. […]

For series [5], the system named is HMC-3 cells. Description: In vitro cellular uptake study in microglial cells. Type of series: in vitro ADME, human. The settings on record: HMC-3, 0.0625 mg/mL, monitored over 24 hours. The procedure: Cell uptake and characterization of extended-release from nanodisc: To evaluate the intracellular uptake of TFV in microglial cells an in vitro cellular uptake study was performed. The cellular uptake of the two formulations (1:20 ND and 1:4 ND) and FD-TFV as a control were evaluated simultaneously and the uptake and release of TFV was monitored over 24 hours. […] This small window of cellular uptake may indicate that there is a certain capacity that microglia cells can uptake TFV. […] However, the short windows of drug uptake by the microglial cells could indicate that the size and surface charge of the ND could be a contributing factor.
Cell uptake and characterization of extended-release from ND: Microglial uptake, retention, and release of 1:20 ND, 1:4 ND, and FD-TFV were determined. HMC-3 cells were cultured in 24-well at 50,000 cells per well and incubated at 37° C. in a humidified, 5% CO2 atmosphere for 24 hours to allow for 70% confluence. After 24 hours of cell growth, samples were assigned into different treatment groups of 1:20 ND, 1:4 ND, and FD-TFV and treated at 0.0625 mg/mL concentration. Following drug treatment, samples were incubated at 37° C., and cell uptake was determined every hour over 8 hours and at a 24-hour timepoint. For each sample, media was collected into microcentrifuge tubes and stored at −20° C. for later analysis. […]

For series [6], the system named is SH-SY5Y cells. Kind of series: Cell viability (MTS) assay on SH-SY5Y cells. The conditions noted are these: 72 hours, 0.01-0.1 mg/mL. It counts as cell-based, human. The procedure: as §3, §4, §5
Series [7] is described as follows: In vitro sustained drug release assay of ND (equilibrium dialysis in PBS, LC-MS/MS). Type of series: physicochemical. Here is the method:
In vitro sustained drug release assay: The nanodisc formulation's extended drug release profile was determined in phosphate buffer saline (PBS) using an equilibrium dialysis system. The released TFV from the dialysis bag into the outside environment was sampled at different time points up to 14 days and was measured by LC-MS/MS. The dialysis bag used in these experiments was selected for its pore size of 6-8 kDa MWCO. […] Simultaneously, a separate set up with the same concentration and volume of FD-TFV was used as a control. Results were expressed as the percentage of total TFV released into the system compared to the initial concentration. It was observed that 63% of FD-TFV was release within 4 hours. […] (FIG. 14).
In vitro sustained drug release assay of ND: The drug release kinetics of the nanodisc-based drug delivery was determined in PBS using equilibrium dialysis. […] TFV was monitored by LC-MS/MS using an AB Sciex (Framingham, MA) 6500+QTRAP® mass spectrometer coupled to a Shimadzu (Columbia, MD) NexeraX2 LC. […] LC-MS/MS then evaluated the supernatant. […] The limit of quantitation (LOQ) was defined as the lowest concentration at which back-calculation yielded a concentration within 20% of theoretical and above the LOD.

The conditions of series [8]: mouse, in vivo, iv, 20 mg/kg. Here is the method: PK data analysis was performed using the plasma concentrations of TFV in the mice (FIG. 17). Plasma samples were collected for up to 48 hrs and 72 hours.
An Envigo Teklad Certified Global 18% protein rodent diet, #2018C, and water were provided to the mice ad libitum. Mice were administered a single dose intravenous (iv) dose administration. The average weight of Phase A and Phase B mice were 17.3-18.6 g and 17.2-23.4 g, respectively. All procedures were per the current Association for Assessment and Accreditation of Laboratory Animal Care (AAALAC) recommendations. In vivo studies were carried out in collaboration with NIH-DAIDS Preclinical Contract Services.
During the PK study, 24 males and 24 females used for this phase were divided into two groups (Table 5). […]
TFV was detected with the mass spectrometer in positive MRM (multiple reaction monitoring) mode by following the precursor to fragment ion transitions 288.1 to 176.2 for TFV. A Phenomenex Synergi Polar-RP column (4 microns, 100×2 mm) was used for chromatography with the following conditions: Buffer A: 2% acetic acid in water, Buffer B: 0.1% acetic acid in acetonitrile, 0-2.0 min 2% B, 2.0-2.01 min gradient to 98% B, 2.01-3.5 min gradient to 98% B, and then 3.51-5 min gradient to 2% B. The concentration of drug in each timepoint sample was quantified using Analyst 1.7 software (AB Sciex).

On to `C[C@H](Cn1cnc2c(N)ncnc21)OCP(=O)(O)O` [FD-TFV, Tenofovir], for which the “drug release of TFV within 4 hours” value in series [1] (NanoDrop spectrophotometer) came out at 100%. For the same compound, the “drug release (comparison with liposomes)” value in series [1] (up to 14 days) was “significantly faster drug release than the liposomes”. For the same compound, the “ROS production compared to the control” value with SH-SY5Y cells [2] and in the series on HMC-3 cells [3] was “did not induce a significant increase” each time. Also, the “cytotoxicity compared to the control” value in the series with HMC-3 cells [4] and in the series with SH-SY5Y cells [6] was “not considered to be significantly toxic” throughout. The “time of maximum uptake” value in the series on HMC-3 cells [5] amounted to 2 h. The “TFV release profile (comparison)” value in series [7] (PBS dialysis, up to 14 days) is on record as “significantly faster TFV release”. Also, the “drug release within 4 hours” value in series [7] (PBS, dialysis 6-8 kDa MWCO, 37° C., LC-MS/MS) came out at 63%. Further, in series [8], the “AUCinf values (comparison with ND formulation)” value is on record as “higher”. Also, the “plasma exposure higher than for ND (mean C0, AUClast and AUCinf)” value in series [8] turned out to be 2 fold.
